Source: the NIST ThermoML archive (doi:10.1016/j.jct.2016.09.030)
± gives the expanded uncertainty stated by the source.

Experiment: xn = mol fraction of the nth substance listed
Details: 100 kPa, Liquid; for viscosity: Concentric cylinders viscometry; for mass density: Vibrating tube method

CCOC(=O)CCC(=O)OCC [diethyl butanedioate] + CC(C)CCO
Details | mass density [kg/m3] | viscosity [mPa·s]
288.15 K, x1 = 0.1 | 845.17 ± 1.6 | 3.582 ± 0.034
288.15 K, x1 = 0.2 | 875.25 ± 1.6 | 3.029 ± 0.029
288.15 K, x1 = 0.3 | 902.72 ± 1.6 | 2.76 ± 0.026
288.15 K, x1 = 0.3999 | 927.82 ± 1.6 | 2.625 ± 0.025
288.15 K, x1 = 0.5 | 951.1 ± 1.6 | 2.58 ± 0.025
288.15 K, x1 = 0.5999 | 972.64 ± 1.6 | 2.6 ± 0.025
288.15 K, x1 = 0.7 | 992.67 ± 1.6 | 2.667 ± 0.025
288.15 K, x1 = 0.7999 | 1011.24 ± 1.6 | 2.808 ± 0.027
288.15 K, x1 = 0.9002 | 1028.55 ± 1.6 | 2.943 ± 0.028
288.15 K, x1 = 1 | 1044.83 ± 1.6 | 3.195 ± 0.03
293.15 K, x1 = 0.1 | 841.19 ± 1.6 | 3.097 ± 0.029
293.15 K, x1 = 0.2 | 871.04 ± 1.6 | 2.621 ± 0.025
293.15 K, x1 = 0.3 | 898.32 ± 1.6 | 2.396 ± 0.023
293.15 K, x1 = 0.3999 | 923.26 ± 1.6 | 2.283 ± 0.022
293.15 K, x1 = 0.5 | 946.4 ± 1.6 | 2.25 ± 0.022
293.15 K, x1 = 0.5999 | 967.82 ± 1.6 | 2.271 ± 0.022
293.15 K, x1 = 0.7 | 987.73 ± 1.6 | 2.332 ± 0.023
293.15 K, x1 = 0.7999 | 1006.2 ± 1.6 | 2.455 ± 0.024
293.15 K, x1 = 0.9002 | 1023.43 ± 1.6 | 2.573 ± 0.025
293.15 K, x1 = 1 | 1039.63 ± 1.6 | 2.807 ± 0.027
298.15 K, x1 = 0.1 | 837.19 ± 1.6 | 2.712 ± 0.026
298.15 K, x1 = 0.2 | 866.82 ± 1.6 | 2.321 ± 0.022
298.15 K, x1 = 0.3 | 893.91 ± 1.6 | 2.139 ± 0.021
298.15 K, x1 = 0.3999 | 918.7 ± 1.6 | 2.053 ± 0.02
298.15 K, x1 = 0.5 | 941.69 ± 1.6 | 2.025 ± 0.02
298.15 K, x1 = 0.5999 | 962.98 ± 1.6 | 2.048 ± 0.02
298.15 K, x1 = 0.7 | 982.79 ± 1.6 | 2.103 ± 0.02
298.15 K, x1 = 0.7999 | 1001.17 ± 1.6 | 2.207 ± 0.021
298.15 K, x1 = 0.9002 | 1018.32 ± 1.6 | 2.308 ± 0.022
298.15 K, x1 = 1 | 1034.44 ± 1.6 | 2.491 ± 0.024
303.15 K, x1 = 0.1 | 833.18 ± 1.6 | 2.377 ± 0.023
303.15 K, x1 = 0.2 | 862.59 ± 1.6 | 2.056 ± 0.02
303.15 K, x1 = 0.3 | 889.5 ± 1.6 | 1.905 ± 0.019
303.15 K, x1 = 0.3999 | 914.12 ± 1.6 | 1.834 ± 0.018
303.15 K, x1 = 0.5 | 936.98 ± 1.6 | 1.817 ± 0.018
303.15 K, x1 = 0.5999 | 958.15 ± 1.6 | 1.838 ± 0.018
303.15 K, x1 = 0.7 | 977.86 ± 1.6 | 1.889 ± 0.018
303.15 K, x1 = 0.7999 | 996.14 ± 1.6 | 1.981 ± 0.019
303.15 K, x1 = 0.9002 | 1013.2 ± 1.6 | 2.069 ± 0.02
303.15 K, x1 = 1 | 1029.25 ± 1.6 | 2.229 ± 0.022
308.15 K, x1 = 0.1 | 829.15 ± 1.6 | 2.096 ± 0.02
308.15 K, x1 = 0.2 | 858.35 ± 1.6 | 1.831 ± 0.018
308.15 K, x1 = 0.3 | 885.07 ± 1.6 | 1.707 ± 0.017
308.15 K, x1 = 0.3999 | 909.54 ± 1.6 | 1.65 ± 0.016
308.15 K, x1 = 0.5 | 932.26 ± 1.6 | 1.638 ± 0.016
308.15 K, x1 = 0.5999 | 953.31 ± 1.6 | 1.661 ± 0.017
308.15 K, x1 = 0.7 | 972.91 ± 1.6 | 1.707 ± 0.017
308.15 K, x1 = 0.7999 | 991.1 ± 1.6 | 1.789 ± 0.018
308.15 K, x1 = 0.9002 | 1008.09 ± 1.6 | 1.868 ± 0.018
308.15 K, x1 = 1 | 1024.08 ± 1.6 | 2.008 ± 0.02
313.15 K, x1 = 0.1 | 825.09 ± 1.6 | 1.867 ± 0.018
313.15 K, x1 = 0.2 | 854.08 ± 1.6 | 1.649 ± 0.016
313.15 K, x1 = 0.3 | 880.62 ± 1.6 | 1.547 ± 0.015
313.15 K, x1 = 0.3999 | 904.94 ± 1.6 | 1.502 ± 0.015
313.15 K, x1 = 0.5 | 927.52 ± 1.6 | 1.496 ± 0.015
313.15 K, x1 = 0.5999 | 948.47 ± 1.6 | 1.518 ± 0.015
313.15 K, x1 = 0.7 | 967.97 ± 1.6 | 1.562 ± 0.016
313.15 K, x1 = 0.7999 | 986.08 ± 1.6 | 1.635 ± 0.016
313.15 K, x1 = 0.9002 | 1002.99 ± 1.6 | 1.706 ± 0.017
313.15 K, x1 = 1 | 1018.9 ± 1.6 | 1.821 ± 0.018
318.15 K, x1 = 0.1 | 821.01 ± 1.6 | 1.656 ± 0.017
318.15 K, x1 = 0.2 | 849.79 ± 1.6 | 1.475 ± 0.015
318.15 K, x1 = 0.3 | 876.16 ± 1.6 | 1.391 ± 0.014
318.15 K, x1 = 0.3999 | 900.33 ± 1.6 | 1.356 ± 0.014
318.15 K, x1 = 0.5 | 922.78 ± 1.6 | 1.354 ± 0.014
318.15 K, x1 = 0.5999 | 943.61 ± 1.6 | 1.377 ± 0.014
318.15 K, x1 = 0.7 | 963.02 ± 1.6 | 1.419 ± 0.014
318.15 K, x1 = 0.7999 | 981.04 ± 1.6 | 1.485 ± 0.015
318.15 K, x1 = 0.9002 | 997.88 ± 1.6 | 1.549 ± 0.015
318.15 K, x1 = 1 | 1013.72 ± 1.6 | 1.66 ± 0.017
323.15 K, x1 = 0.1 | 816.9 ± 1.6 | 1.496 ± 0.015
323.15 K, x1 = 0.2 | 845.48 ± 1.6 | 1.346 ± 0.014
323.15 K, x1 = 0.3 | 871.68 ± 1.6 | 1.271 ± 0.013
323.15 K, x1 = 0.3999 | 895.7 ± 1.6 | 1.247 ± 0.013
323.15 K, x1 = 0.5 | 918.03 ± 1.6 | 1.243 ± 0.013
323.15 K, x1 = 0.5999 | 938.75 ± 1.6 | 1.27 ± 0.013
323.15 K, x1 = 0.7 | 958.06 ± 1.6 | 1.308 ± 0.013
323.15 K, x1 = 0.7999 | 975.99 ± 1.6 | 1.369 ± 0.014
323.15 K, x1 = 0.9002 | 992.76 ± 1.6 | 1.428 ± 0.014
323.15 K, x1 = 1 | 1008.55 ± 1.6 | 1.523 ± 0.015
